From US20260365628A1, “SUBSTITUTED 3,4-DIHYDROQUINOLINONE INHIBITORS OF TSHR” (Septerna, Inc., priority 2022, published 2026)

Molecular target: T1, hTSHR (Homo sapiens, UniProt P16473)
T1 construct: expressed in transfected cells
Experiment: hTSHR TR-FRET cAMP Assay (inhibition of M22-stimulated cAMP production)
Type: cell-based
Conditions: Expi293F Inducible cells stably expressing hTSHR; cAMP HTRF; stimulated with EC80 of anti-TSHR antibody M22; 15 min compound preincubation, 30 min at 37° C.; read-out: Activity (IC50 bins)
Summary of the method: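 Readout was a cAMP HTRF ratio of 655/620 nm after lysis, scaled between the EC80 M22 signal (0% inhibition) and no-agonist vehicle (100%). Frozen induced Expi293F-hTSHR cells saw test compounds (0.5% DMSO) for 15 min at 37 °C before 30 min of M22 stimulation at EC80.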

T1 sequence (P16473 21-764): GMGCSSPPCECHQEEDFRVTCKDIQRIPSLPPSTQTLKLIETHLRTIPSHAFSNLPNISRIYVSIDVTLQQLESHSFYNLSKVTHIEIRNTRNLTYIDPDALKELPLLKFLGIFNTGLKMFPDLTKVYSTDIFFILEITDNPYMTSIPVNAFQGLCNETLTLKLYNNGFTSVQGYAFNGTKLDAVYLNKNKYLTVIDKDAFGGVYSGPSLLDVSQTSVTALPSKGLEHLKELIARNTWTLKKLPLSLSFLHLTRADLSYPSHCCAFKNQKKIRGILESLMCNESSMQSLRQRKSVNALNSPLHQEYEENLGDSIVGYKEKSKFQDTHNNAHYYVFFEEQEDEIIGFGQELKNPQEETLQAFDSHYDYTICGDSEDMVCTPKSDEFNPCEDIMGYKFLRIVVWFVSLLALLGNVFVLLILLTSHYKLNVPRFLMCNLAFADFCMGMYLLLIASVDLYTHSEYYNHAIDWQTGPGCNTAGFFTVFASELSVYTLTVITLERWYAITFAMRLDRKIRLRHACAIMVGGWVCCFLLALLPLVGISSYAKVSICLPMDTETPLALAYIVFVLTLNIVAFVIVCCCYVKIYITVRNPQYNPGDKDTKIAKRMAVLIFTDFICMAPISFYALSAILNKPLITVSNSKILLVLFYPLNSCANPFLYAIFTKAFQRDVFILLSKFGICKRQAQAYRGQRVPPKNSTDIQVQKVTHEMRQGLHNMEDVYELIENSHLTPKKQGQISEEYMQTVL

| Compound | IC50 [µM] |
| --- | --- |
| C[C@H]1Oc2cc(NC(=O)NC3(C)CC(F)(F)C3)ccc2N([C@@H](C)c2ccccc2)C1=O [Example 260, 1-(3,3-difluoro-1-methylcyclobutyl)-3-((R)-2-methyl-3-oxo-4-((S)-1-phen-ylethyl)-3,4-dihydro-2H-benzo[b][1,4]oxazin-7-yl)urea] | 0.1 to 1 |
| COCC1(NC(=O)Nc2ccc3c(c2)O[C@H](C)C(=O)N3[C@@H](C)c2ccccc2)CCC1 [Example 261, 1-(1-(methoxy-methyl)cyclobutyl)-3-((R)-2-methyl-3-oxo-4-((S)-1-phen-ylethyl)-3,4-dihydro-2H-benzo [b][1,4]oxazin-7-yl)urea] | 0.1 to 1 |
| C[C@H]1Oc2cc(NC(=O)NC3(C)COC3)ccc2N([C@@H](C)c2ccccc2)C1=O [Example 262, 1-((R)-2-methyl-3-oxo-4-((S)-1-phenylethyl)-3,4-dihydro-2H-benzo [b][1,4]oxazin-7-yl)-3-(3-methyl-oxetan-3-yl)urea] | > 1 |
| C[C@H]1Oc2cc(NC(=O)NC3(C(F)(F)F)COC3)ccc2N([C@@H](C)c2ccccc2)C1=O [Example 263, 1-((R)-2-methyl-3-oxo-4-((S)-1-phen-ylethyl)-3,4-dihydro-2H-benzo[b][1,4]oxazin-7-yl)-3-(3-(trifluoromethyl)-oxetan-3-yl)urea] | 0.1 to 1 |
| C[C@H]1Oc2cc(NC(=O)NC3(C(F)(F)F)CC(F)(F)C3)ccc2N([C@@H](C)c2ccccc2)C1=O [Example 264, 1-(3,3-difluoro-1-(trifluoromethyl)-cyclobutyl)-3-((R)-2-methyl-3-oxo-4-((S)-1-phenylethyl)-3,4-dihydro-2H-benzo[b][1,4]oxazin-7-yl)urea] | 0.1 to 1 |
| C[C@H]1Oc2cc(NC(=O)NC3(C)CCOCC3)ccc2N([C@@H](C)c2ccccc2)C1=O [Example 265, 1-((R)-2-methyl-3-oxo-4-((S)-1-phen-ylethyl)-3,4-dihydro-2H-benzo[b][1,4]oxazin-7-yl)-3-(4-methyltetrahydro-2H-pyran-4-yl)urea] | 0.1 to 1 |
| Cc1ccc(C#N)c(CN2C(=O)CCc3cc(NC(=O)NC(C)(C)C)ccc32)c1 [Example 266, 3-tert-butyl-1-{1-[(2-cyano-5-methylphenyl)methyl]-2-oxo-3,4-dihydroquinolin-6-yl}urea] | > 1 |
| CC(c1cccc(C(F)(F)F)c1)N1C(=O)N(C)Cc2cc(NC(=O)NC(C)(C)C)ccc21 (stereo not drawn) [Example 271, 1-(tert-butyl)-3-(3-methyl-2-oxo-1-(1-(3-(trifluoromethyl)phenyl)ethyl)-1,2,3,4-tetrahydroquinazolin-6-yl)urea] | > 1 |
| CC(C)(C)NC(=O)Nc1ccc2c(n1)CCC(=O)N2Cc1cccc(C(F)(F)F)c1 [Example 274, 1-(tert-butyl)-3-(6-oxo-5-(3-(trifluoromethyl)benzyl)-5,6,7,8-tetrahydro-1,5-naphthyridin-2-yl)urea] | 0.1 to 1 |
| C[C@@H](c1cccc(C(F)(F)F)c1)N1C(=O)CCc2nc(NC(=O)NC(C)(C)C)ccc21 [Example 282, (S)-1-(tert-butyl)-3-(6-oxo-5-(1-(3-(trifluoromethyl)phenyl)ethyl)-5,6,7,8-tetrahydro-1,5-naphthyridin-2-yl)urea] | 0.1 to 1 |
| C[C@H](c1cccc(C(F)(F)F)c1)N1C(=O)CCc2nc(NC(=O)NC(C)(C)C)ccc21 [Example 283, (R)-1-(tert-butyl)-3-(6-oxo-5-(1-(3-(trifluoromethyl)phenyl)ethyl)-5,6,7,8-tetrahydro-1,5-naphthyridin-2-yl)urea] | > 1 |
| O=C(Nc1ccccc1)Nc1ccc2c(c1)CCC(=O)N2Cc1ccccc1 [Example 284, 3-(1-benzyl-2-oxo-3,4-dihydroquinolin-6-yl)-1-phenylurea] | > 1 |
| C[C@@H](c1cccc(Cl)c1)N1C(=O)CCc2nc(NC(=O)NC(C)(C)C)ccc21 [Example 290, (S)-1-(tert-butyl)-3-(5-(1-(3-chlorophenyl)ethyl)-6-oxo-5,6,7,8-tetrahydro-1,5-naphthyridin-2-yl)urea] | > 1 |
| C[C@H](c1cccc(Cl)c1)N1C(=O)CCc2nc(NC(=O)NC(C)(C)C)ccc21 [Example 291, (R)-1-(tert-butyl)-3-(5-(1-(3-chlorophenyl)ethyl)-6-oxo-5,6,7,8-tetrahydro-1,5-naphthyridin-2-yl)urea] | 0.1 to 1 |
| CC(c1cc(Cl)ccc1C#N)N1C(=O)COc2cc(NC(=O)NC(C)(C)C)ccc21 (stereo not drawn) [Example 293, 1-(tert-butyl)-3-(4-(1-(5-chloro-2-cyanophenyl)ethyl)-3-oxo-3,4-dihydro-2H-benzo[b][1,4]oxazin-7-yl)urea] | > 1 |
| CCc1nc2cc(NC(=O)NC(C)(C)C)ccc2n(Cc2cccc(OC(F)(F)F)c2)c1=O [Example 295, 1-(tert-butyl)-3-(3-ethyl-2-oxo-1-(3-(trifluoromethoxy)benzyl)-1,2-dihydroquinoxalin-6-yl)urea] | > 1 |

Other lines, results leading:

| IC50 [µM] | Compound |
| --- | --- |
| 0.1 to 1 | CC(C)(C)NC(=O)Nc1ccc2c(c1Cl)CCC(=O)N2Cc1ccccc1 [Example 267, 1-(1-benzyl-5-chloro-2-oxo-1,2,3,4-tetrahydroquinolin-6-yl)-3-(tert-butyl)urea] |
| 0.1 to 1 | C[C@@H]1Oc2cc(NC(=O)NC(C)(C)C)ccc2N([C@@H](C)c2ccccc2)C1=O [Example 268, 1-(tert-butyl)-3-((S)-2-methyl-3-oxo-4-((S)-1-phenylethyl)-3,4-dihydro-2H-benzo[b][1,4]oxazin-7-yl)urea] |
| < 0.1 | C[C@H]1Oc2cc(NC(=O)NC(C)(C)C)ccc2N([C@@H](C)c2ccccc2)C1=O [Example 269, 1-(tert-butyl)-3-((R)-2-methyl-3-oxo-4-((S)-1-phenylethyl)-3,4-dihydro-2H-benzo[b][1,4]oxazin-7-yl)urea] |
| > 1 | CC(C)(C)NC(=O)Nc1cc2c(cc1C#N)N(Cc1ccccc1)C(=O)CC2 [Example 270, 1-(1-benzyl-7-cyano-2-oxo-3,4-dihydroquinolin-6-yl)-3-tert-butylurea] |
| > 1 | Cc1nc2cc(NC(=O)NC(C)(C)C)ccc2n(Cc2ccccc2)c1=O [Example 272, 1-(1-benzyl-3-methyl-2-oxo-1,2-dihydroquinoxalin-6-yl)-3-(tert-butyl)urea] |
| 0.1 to 1 | Cc1nc2cc(NC(=O)NC(C)(C)C)ccc2n(Cc2cccc(Cl)c2)c1=O [Example 273, 3-tert-butyl-1-{1-[(3-chlorophenyl)methyl]-3-methyl-2-oxoquinoxalin-6-yl}urea] |
| > 1 | CC(C)(C)NC(=O)Nc1ccc2c(c1)C[C@H](CC#N)C(=O)N2Cc1ccccc1 [Example 275, (R)-1-(1-benzyl-3-(cyanomethyl)-2-oxo-1,2,3,4-tetrahydroquinolin-6-yl)-3-(tert-butyl)urea] |
| > 1 | CC(C)(C)NC(=O)Nc1ccc2c(c1)C[C@@H](CC#N)C(=O)N2Cc1ccccc1 [Example 276, (S)-1-(1-benzyl-3-(cyanomethyl)-2-oxo-1,2,3,4-tetrahydroquinolin-6-yl)-3-(tert-butyl)urea] |
| > 1 | CC[C@H]1Oc2cc(NC(=O)NC(C)(C)C)ccc2N(Cc2ccccc2)C1=O [Example 277, (R)-1-(4-benzyl-2-ethyl-3-oxo-3,4-dihydro-2H-benzo[b][1,4]oxazin-7-yl)-3-(tert-butyl)urea] |
| > 1 | CC[C@@H]1Oc2cc(NC(=O)NC(C)(C)C)ccc2N(Cc2ccccc2)C1=O [Example 278, (S)-1-(4-benzyl-2-ethyl-3-oxo-3,4-dihydro-2H-benzo[b][1,4]oxazin-7-yl)-3-(tert-butyl)urea] |
| > 1 | CC(C)(C)NC(=O)Nc1ccc2c(c1C#N)CCC(=O)N2Cc1ccccc1 [Example 279, 1-(1-benzyl-5-cyano-2-oxo-1,2,3,4-tetrahydroquinolin-6-yl)-3-(tert-butyl)urea] |
| 0.1 to 1 | C[C@H]1Oc2nc(NC(=O)NC(C)(C)C)ccc2N(Cc2ccccc2)C1=O [Example 280, (R)-1-(1-benzyl-3-methyl-2-oxo-2,3-dihydro-1H-pyrido[2,3-b][1,4]oxazin-6-yl)-3-(tert-butyl)urea] |
| 0.1 to 1 | CC(C)(C)NC(=O)Nc1ccc2c(n1)CCC(=O)N2Cc1cccc(Cl)c1 [Example 281, 1-(tert-butyl)-3-(5-(3-chlorobenzyl)-6-oxo-5,6,7,8-tetrahydro-1,5-naphthyridin-2-yl)urea] |
| > 1 | CC(C)(C)CC(=O)Nc1ccc2c(c1)CCC(=O)N2Cc1ccccc1 [Example 285, N-(1-benzyl-2-oxo-3,4-dihydroquinolin-6-yl)-3,3-dimethylbutanamide] |
| > 1 | C[C@@H]1Oc2nc(NC(=O)NC(C)(C)C)ccc2N(Cc2cccc(Cl)c2)C1=O [Example 286, (S)-1-(tert-butyl)-3-(1-(3-chlorobenzyl)-3-methyl-2-oxo-2,3-dihydro-1H-pyrido[2,3-b][1,4]oxazin-6-yl)urea] |
| 0.1 to 1 | C[C@H]1Oc2nc(NC(=O)NC(C)(C)C)ccc2N(Cc2cccc(Cl)c2)C1=O [Example 287, (R)-1-(tert-butyl)-3-(1-(3-chlorobenzyl)-3-methyl-2-oxo-2,3-dihydro-1H-pyrido[2,3-b][1,4]oxazin-6-yl)urea] |
| > 1 | COC[C@@H]1Oc2cc(NC(=O)NC(C)(C)C)ccc2N(Cc2ccccc2)C1=O [Example 288, (S)-1-(4-benzyl-2-(methoxymethyl)-3-oxo-3,4-dihydro-2H-benzo[b][1,4]oxazin-7-yl)-3-(tert-butyl)urea] |
| > 1 | COC[C@H]1Oc2cc(NC(=O)NC(C)(C)C)ccc2N(Cc2ccccc2)C1=O [Example 289, (R)-1-(4-benzyl-2-(methoxymethyl)-3-oxo-3,4-dihydro-2H-benzo[b][1,4]oxazin-7-yl)-3-(tert-butyl)urea] |
| > 1 | CC(C)(C)NC(=O)Nc1ccc2c(c1)OC(C)(C)C(=O)N2Cc1ccccc1 [Example 292, 1-(4-benzyl-2,2-dimethyl-3-oxo-3,4-dihydro-2H-benzo[b][1,4]oxazin-7-yl)-3-(tert-butyl)urea] |
| > 1 | CC(C)(C)NC(=O)Nc1ccc2c(c1)nc(N)c(=O)n2Cc1ccccc1 [Example 294, 1-(3-amino-1-benzyl-2-oxo-1,2-dihydroquinoxalin-6-yl)-3-(tert-butyl)urea] |
